Laboratory results: patent publication US20040224995A1 (University of North Texas Health Science Center at Fort …, priority 2003, published 2004)

How the values were obtained:
[1] = test system: γ-glutamyl-cysteine synthetase (GCS) catalytic and regulatory subunits; assay: Western blot of GCS subunits in HT-22 cells; assay type: cell-based, mouse; conditions: compound 24 h before glutamate or H2O2, also independent of glutamate
Experimental: Determining γ-glutamylcysteine synthetase (“GCS”) protein levels was determined using Western blotting analysis, as shown in FIGS. 28 and 29. Antibodies against the heavy (catalytic) and light (regulatory) subunits, GCSH and GCSL, respectively, were ordered from Santa Cruz Biotechnology, Santa Cruz, Calif. Anti-β-actin polyclonal antibody was obtained from Biomedical Technologies Inc. (Stoughton, Mass.). Cyclopentenone PGs treated and untreated HT-22, C6, and RGC-5 cells were homogenized in a buffer containing 20 mM HEPES, pH 7.4, 2 mM […], 1 mM EGTA, […], 2 mm DTE, and […] aprotonin. Cells were sonicated to disrupt cell membranes, and Triton X-100 was added to a final concentration of 0.05% to solubilize membrane bound proteins. Equal amounts of proteins, as determined by the Bradford method, were separated by SDS-PAGE and transferred to polyvinylidene fluoride membrane (Millipore, Bedford, Mass.) in a BiORad (Hercules, Calif.) trans-Blot electrophoresis apparatus at 100 V for 2 hr using Towbin's buffer [25 mm Tris, pH 8.3, 192 mM glycine, and 20% methanol]. […] Equal amounts of proteins, as determined by the Bradford method, were separated by SDS-PAGE and transferred to PVDF membrane. […] […]

[2] = Middle cerebral artery occlusion (MCAO) in ovariectomized female rats; assay type: in vivo, rat; conditions: rats, doses given prior to MCA occlusion
Source text: (§1) Evaluating the role of cyclopentenone PGs and TZD's has also been completed in vivo. […] Troglitazone reduced the resulting infarct size by about 50% compared to vehicle (corn oil treated animals). This effective protection from a transient focal ischemic event by troglitazone argues that selective PPARγ agonists may be useful neuroprotectants during neurodegenerative events (e.g. stroke).
(§2) As shown below, the results from our experiments comprise results that indicate potent neuroprotective TZD's, as were used in neuronal cell lines are also effective in an animal model. Although not wanting to be bound by theory, the rat is the appropriate animal model for assessing the effects of drugs on neuronal damage, as the compounds to be evaluated are intended for use in humans. […] Female Sprague Dawley rats were purchased from Harlan in Indianapolis, Ind. Rats were housed in pairs in hanging, stainless steel cages in a temperature-controlled rooms (25±1° C.) with a daily light cycle (on from 0700 to 1900 h daily). All rats were allowed free access to laboratory chow and tap water. All procedures performed on animals will were reviewed and approved by the University of North Texas Health Science Center Institutional Animal Care and Use Committee (“ACUC”).
(§3) The female Sprague Dawley rats (225-250 g BW) were bilaterally ovariectomized using a dorsal approach. Animals were anesthetized with ketamine ([…]) and xylazine (10 mg/kg). A small (1 cm) cut was made through the skin, fascia, and muscle. […] Percent ischemic lesion area was calculated. * indicates p<0.05 vs. respective control group. […]
(§4) Each group of animals was decapitated 24 h after MCAO. […] Slices were then fixed in a 10% formalin and photographed by a digital camera (Sony MVC-FD5), and the ischemic lesion area were determined for each slice using the Image-Pro Plus software (Media Cybernectics, Silver Spring, Md.). Percent ischemic lesion area was calculated as the sum of the ischemic lesion area for the five slices divided by the total cross sectional area of these five slices.

[3] = test system: ischemic lesion after MCAO; assay: as above; assay type: in vivo, rat
Source text: as §1, §2, §3, §4

Row | SMILES | expression of catalytic (C) and regulatory (R) subunits of GCS [1] | brain concentrations [2] | reduction of infarct size compared to vehicle ([3]; rats treated prior to MCA occlusion, vehicle corn oil) | reduction of ischemic lesion area compared to control animals ([3]; s.c. injection 12 h and 2 h before MCAO, 60 min occlusion, 24 h reperfusion)
1 | CCCCC/C=C/C=C1/C(=O)C=C[C@@H]1C/C=C\CCCC(=O)O [15d-PGJ2, 15-deoxy-Δ^12,14-PGJ2] | upregulates |  |  | 
2 | Cc1c(C)c2c(c(C)c1O)CCC(C)(COc1ccc(CC3SC(=O)NC3=O)cc1)O2 (stereo not shown) [troglitazone] |  | about 7 μM | about 50% | about 50%
